This assay deals with T1, human FPTase (Homo sapiens, UniProt P49354+P49356).
T1 construct: made in house
Put plainly: In vitro inhibition of ras farnesyl transferase (human FPTase assay). The format is biochemical. The protocol:
Assays of farnesyl-protein transferase. […] Reactions were initiated with FPTase and stopped with 1 ml of 1.0 M HCL in ethanol. […] Purified compounds were dissolved in 100% dimethyl sulfoxide (DMSO) and were diluted 20-fold into the assay. Percentage inhibition is measured by the amount of incorporation of radioactivity in the presence of the test compound when compared to the amount of incorporation in the absence of the test compound.
Human FPTase activity was assayed as described above with the exception that 0.1% (w/v) polyethylene glycol 20,000, 10 μM ZnCl2 and 100 nM Ras-CVIM were added to the reaction mixture. Reactions were performed for 30 min., stopped with 100 μl of 30% (v/v) trichloroacetic acid (TCA) in ethanol and processed as described above for the bovine enzyme.

Where a name gives a salt, the structure may show the parent alone. Read-outs that look alike come from different tables or passages of the source. Bounds are passed on as bounds.

With `N#Cc1ccc(Cc2cncn2CC2CCN(c3ccccc3)C(=O)C2)cc1` (centres unmarked) [Example 1, 4-[5-(4-Cyanobenzyl)imidazol-1-ylmethyl]-1-phenyl-2-piperidinone hydrochloride], the IC50 (usually the concentration that gives 50% inhibition) is at most 10 µM.

`CCOC(=O)C1(Cc2cccc(C)c2)CCN(Cc2cncn2Cc2ccc(C#N)cc2)CC1=O` (centres unmarked) [Example 6, Ethyl 1-[3-(4-cyanobenzyl)-3H-imidazol-4-ylmethyl]-3-oxo-4-(3-methylbenzyl)piperidine-4-carboxylate trifluoroacetate salt]: where the note is “human FPTase, 100 nM Ras-CVIM, [3H]-FPP, 30 min, read-out: IC50 of inhibitory activity against human FPTase”, the IC50 is at most 10 µM.

The values are drawn from US5965578A, “Inhibitors of farnesyl-protein transferase” (Merck & Co., Inc., priority 1997, dated 1999).
